IC50 and Ki data for 1 compound are collected here from patent US5354749A, “Sulfonylbenzyl-substituted benzo- and pyridopyridones” (Bayer Aktiengesellschaft, priority 1992, dated 1994).

For experiment [1], the system named is angiotensin II-induced contraction of the isolated rabbit aorta. Nature of the experiment: Inhibition of angiotensin II-induced contraction (vasoconstriction) on isolated aortic rings from rabbits in vitro. To be noted: at 3rd = submaximum agonist concentration. Here is the method: Rabbits of both sexes are stunned by a blow to the neck and exsanguinated, or optionally anaesthetised with Nembutal (about 60-80 mg/kg i.v.) and sacrificed by opening the thorax. The thoracic aorta is removed, freed from adhering connective tissue and divided into ring segments 1.5 mm wide, and these are introduced individually, under an initial load of about 3.5 g, into 10 ml organ baths with carbogen-gassed Krebs-Henseleit nutrient solution thermostatically controlled at 37° C. and having the following composition: 119 mmol/l of NaCl; 2.5 mmol/l of CaCl2 ×2 H2 O; 1.2 mmol/l of KH2 PO4; 10 mmol/l of glucose; 4.8 mmol/l of KCl; 1.4 mmol/l of MgSO4 ×7 H2 O and 25 mmol/l of NaHCO3.
The contractions are recorded isometrically by Statham UC2 cells via a bridge amplifier (from Mulheim or DSM Aalen) and digitised and evaluated by means of an A/D converter (System 570, Keithley Munich). The agonist dose/effect curves (DEC) are plotted hourly. For each DEC, 3 or 4 individual concentrations are applied to the baths at intervals of 4 minutes. At the end of the DEC and the subsequent wash-out cycles (16 times for in each case about 5 seconds/minute with the abovementioned nutrient solution), a 28-minute rest or incubation phase follows, within which the contractions as a rule reach the starting value again. […]

In a further experiment the target is T1, Angiotensin II receptor (Bos taurus, UniProt P25104).
T1 construct: carried out on partially purified membrane fractions of bovine AC with radioactive angiotensin II; from tissue; host or cells: bovine adrenal cortex, partially purified membrane fractions
T1 sequence (P25104 1-359): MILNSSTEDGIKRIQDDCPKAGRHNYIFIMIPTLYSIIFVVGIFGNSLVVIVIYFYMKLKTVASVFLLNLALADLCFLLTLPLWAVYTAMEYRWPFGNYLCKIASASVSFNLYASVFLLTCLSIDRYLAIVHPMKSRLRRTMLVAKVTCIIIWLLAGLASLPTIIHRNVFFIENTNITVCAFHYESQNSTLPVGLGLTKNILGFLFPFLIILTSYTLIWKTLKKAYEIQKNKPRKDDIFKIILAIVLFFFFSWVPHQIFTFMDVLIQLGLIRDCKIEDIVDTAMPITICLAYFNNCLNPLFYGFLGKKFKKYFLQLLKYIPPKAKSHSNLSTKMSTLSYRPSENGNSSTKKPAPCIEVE
Put plainly: Angiotensin II receptor binding on membrane fractions of the adrenal cortex (3H-angiotensin II). The conditions noted are these: bovine adrenal cortex membranes; 3H-angiotensin II 3-5 nM; 60 minutes, room temperature. Here is the method:
Bovine adrenal cortices (AC) which are freshly removed and thoroughly freed from medulla of the capsule are comminuted in sucrose solution (0.32 M) with the aid of an Ultra-Turrax (Janke & Kunkel, Staufen i.B.) to give a coarse membrane homogenate, which is partially purified in two centrifugation steps to give membrane fractions. The investigations in receptor binding are carried out on partially purified membrane fractions of bovine AC with radioactive angiotensin II in an assay volume of 0.25 ml which contains, specifically, the partially purified membranes (50-80 μg), ^3 H-angiotensin II (3-5 nM), test buffer solution (50 mM Tris, pH 7.2) 5 mM MgCl2 and the substances to be investigated. After an incubation time of 60 minutes at room temperature, the non-bound radioactivity of the samples is separated off by means of moistened glass fibre filters (Whatman GF/C) and the bound radioactivity is measured […] in a scintillation cocktail, after the protein has been washed with ice-cold buffer solution (50 mM Tris/HCl, pH 7.4, 5% PEG 6000). The raw data were analysed with computer programs to give Ki and IC50 values (Ki : IC50 values corrected for the radioactivity used; IC50 values: concentration at which the substance to be investigated causes 50% inhibition of the specific binding of the radioligand).

The compound `CCCCc1cc2ccccc2c(=O)n1Cc1ccc(S(=O)(=O)N2CCCC2C(=O)O)cc1Cl` (centres unmarked) [Example 2, N-4-[3-Butyl-1,2-dihydro-1-oxo-isoquinolin-2-yl-methyl]3-chlorophenylsulphonylproline] returned an IC50 in experiment [1] of 0.66 µM. Further, the Ki at Angiotensin II receptor turned out to be 1.7 µM.

What is called IC50 is the concentration that gives 50% inhibition. Read a high IC50 as a need for much substance. One may read the Ki as a measure of affinity in units of concentration, obtained from inhibition or displacement. A low value points to a stronger hold on the target.
